Source: patent US11801235B2, “Methods and compositions for delivery of biotin to mitochondria” (priority 2020, dated 2023)
Square brackets hold non-standard residues; d marks the D form. Peptide text beside a SMILES is read from it. * marks the point of attachment. Biotin = O=C1N[C@H]2[C@H](CS[C@H]2CCCCC(=O)*)N1

Legend:
mouse retina = conditions: 30 mg/kg ip
Experimental: SPN15 (30 mg/kg) was administered ip to a 13-month-old male mouse (C57BL/6J strain). At 2-hours after administration, the mouse was anesthetized with an overdose of ketamine/xylazine, and the eyes enucleated. After the cornea and lens were removed, the eyecup was fixed for 1.25 hours in 4% paraformaldehyde in 0.1M Tris buffer. The eyecup was then rinsed 3 times for 10 minutes each in Tris buffer and then cryoprotected in 10%, 20%, and 30% sucrose before sectioning at 30 um with a Leica 3050 cryostat. Sections were stored at −20° C. until used.
To label biotin on SPN15, sections were incubated with Streptavidin conjugated AlexaFluor 594 (1:500) from Jackson ImmunoResearch, West Grove, PA). ToPro 3 (nuclear stain, 1:1000, Molecular Probes) was used to stain cell nuclei. Mitochondria localization was determined using an antibody to Cox IV (cytochrome c oxidase subunit 4; PA529992, 1:300, Invitrogen) and Mitotracker Red (1:1500 in Tris, Invitrogen). All incubations were carried out in microwave (150W) except for Cox IV and Mitotracker labeling, which was done with primary antibody overnight at 4° C. followed by secondary antibody (AF488 conjugated donkey anti-rabbit, Jackson Immunoresearch). Sections were imaged using the Olympus Fluoview 300 with helium, argon and neon lasers using 40× oil immersion lens at a resolution of 1024×1024.

HK-2 cells = experiment: In vitro scratch assay (scratch area); format: cell-based, human; conditions: 10 nM, serum-free, 24 hours
Experimental: (§1) Certain exemplary peptide-conjugated biotin molecules can accelerate wound healing in cell cultures. The in vitro scratch assay is an easy and well-developed method to measure cell proliferation and migration over a “wound area” in vitro. This assay involves creating a “scratch” in a cell monolayer with a pipette tip and then examining the rate at which cells proliferate and migrate to close the scratch.
3×10^5 cells were plated per well in 6-well plates in DMEM at 37° C. in a humidified incubator with 5% CO2 for one day prior to the experiment. To mimic the microenvironment of wounds in vitro, serum-free medium was used in the scratch assay. On the day of the scratch assay, the medium was replaced with serum-free DMEM, and a line scraped across the cell monolayer using a p1000 pipette tip. Cells were washed to remove cell debris and replaced with DMEM alone (control), or DMEM containing 10 nM biotin or peptide-conjugated biotin molecules.
(§2) The scratch area was examined immediately (day 0) using a Nikon Eclipse Ti2 fluorescence microscope. Six different field were captured for each sample using 4×objective. The scratch area (cell-free zone) was calculated using ImageJ software, an open-source Java image processing program inspired by NIH Image (National Institute of Health). The scratch area was re-examined after 24 hours (day 1), and the area was normalized to the area determined on day 0 for the same sample. All results were calculated as change from no-treatment control and averaged for the six fields.

ARPE-19 cells [1] = experiment: In vitro scratch assay (scratch area); format: cell-based, human
Source text: as §1, §2

[2] = tested on: ARPE-19 human retinal pigment epithelial cells; experiment: Mitochondrial localization: co-localization with cytochrome c oxidase subunit 4 (COX4); format: cell-based; conditions: ARPE-19 cells, 1 uM, 2 hours, serum-free DMEM/F12
Experimental: Cells were fixed with 4% PFA at RT for 10 min and then permeabilized with 0.1% Triton X-100 at RT for 10 min. Cells were blocked with 2% BSA (bovine serum albumin) at RT for 30 min, and then incubated with primary antibody for cytochrome c oxidase subunit 4 (COX4), a major protein complex expressed on the inner mitochondrial membrane. The rabbit polyclonal COX4 antibody (Invitrogen PAS-29992, Waltham, MA) was used at 1:500 dilution in 2% BSA at 4° C. overnight.

[3] = tested on: ARPE-19 human retinal pigment epithelial cells; experiment: Biotin uptake by streptavidin-Alexa Fluor 594 fluorescence in ARPE-19 cells; conditions: 1 uM, 1-hour incubation, serum-free
Experimental: Cellular uptake and localization of peptide-conjugated biotin molecules were determined in HK-2 human renal epithelial cells and ARPE-19 human retinal pigment epithelial cells (ATCC, Manassas, VA). HK-2 cells were cultured in Dulbecco's Modified Eagle's Medium (DMEM) containing 1 g/L glucose and 10% fetal bovine serum (FBS), 100 units/ml penicillin and 100 ug/ml streptomycin. ARPE-19 cells were cultured in DMEM/F12 medium containing 1 g/L glucose and 10% fetal bovine serum (FBS), 100 units/ml penicillin and 100 ug/ml streptomycin. Cells were incubated in humidified incubator with 5% CO2 at 37° C. HK-2 cells and ARPE-19 cells were seeded in 35 mm dish at an initial density of 5×10^4 cells. FBS was removed from the culture medium for 3 days to deplete endogenous biotin in the cells. […]
Biotin uptake was determined using Streptavidin binding. […] By using Alexa Fluor 594-conjugated streptavidin, it is possible to visualize biotin uptake using fluorescence microscopy. […] Live cell image buffer was added and Alexa-594 fluorescence (Ex/Em=591/614 nm) and Hoechst fluorescence ([…]) was observed using the Nikon Eclipse Ti2 fluorescence microscope (100×oil objective). Ten random fields from each sample were quantified by NIS-Elements Imaging Software (Nikon) for streptavidin fluorescence and normalized to Hoechst fluorescence to account for number of cells per field.

[4] = tested on: Human retinal pigment epithelial cells (ARPE-19); experiment: Mitochondrial potential (TMRM/MitoView Green) after serum starvation; format: cell-based; conditions: ARPE-19 cells, 3 days of serum starvation, then 1 uM for 2 hours
Experimental: ARPE-19 cells were seeded in 35 mm glass plates at an initial density of 5×10^4 cells. […] Cells were then incubated in serum-free DMEM/F12 alone (control group) or DMEM/F12 containing 1 uM of SPN12 or SPN15 for 2 hours.
To determine mitochondrial potential, live cells were incubated with 5 nM tetramethylrhodamine methyl ester (TMRM, #70017, Biotium, Fremont, CA) in DMEM without phenol red. TMRM is a potential-dependent fluorescent dye (Ex/Em=548/573). TMRM accumulates in negatively charged polarized mitochondria and can be detected as red fluorescence. Total mitochondria were imaged with a mitochondrial potential-independent fluorescent dye (100 nM MitoView Green; Ex/Em=490/523; #70054, Biotium, Fremont CA). Hoechst 33342 (10 ug/ml, Novus Biologicals, Centennial, CO) was added to stain nuclei. Live cells were covered with phosphate buffer and imaged using the Nikon Eclipse Ti fluorescent microscopy using the 60×water objective.

ARPE-19 cells [5] = experiment: Cell number and viability after 30 days of serum deprivation; format: cell-based, human; conditions: 10 nM
Experimental: Cell viability was measured using the Alamar Blue Cell Proliferation Assay (Bio-Rad), according to manufacturer's protocol. Alamar Blue uses resazurin to measure reducing power of living cells. The weakly fluorescent resazurin is reduced to the highly fluorescent resorufin when reduced by cellular metabolism. Briefly, alamar blue reagent (10 ul) was added to the culture medium and incubated for 1 h at 37° C. Fluorescence from resorufin (Ex/Em 530/590 nm) was detected using a microplate reader (SpectraMax iD3, Molecular Devices).
In the second model, ARPE-19 cells were grown in serum-free DMEM in the absence or presence of peptide-conjugated biotin molecules for 30 days. Serum-free media was supplemented with 10 nM of SPN12, SPN15 or SPN16 compounds (all at 10 nM) was replaced every 3 days. Culture medium was replaced every 3 days.

[6] = mouse, 2 hours after administration

`N=C(N)NCCC[C@@H](N)C(=O)N[C@@H](Cc1ccc(O)cc1)C(=O)N[C@H](CCCNC(=N)N)C(=O)N[C@@H](Cc1ccccc1)C(=O)N[C@@H](CCCCNC(=O)CCCC[C@@H]1SC[C@@H]2NC(=O)N[C@@H]21)C(N)=O` [SPN15, D-Arg-L-Tyr-D-Arg-L-Phe-L-Lys(biotinyl)-NH2] (H-[dR]Y[dR]FK(Biotin)-NH2; N-terminus assumed) was tested, and the “absorption after ip administration” value (mouse retina; living mouse, 2 hours) was “rapidly absorbed”, the “co-localization of streptavidin staining with COX4 staining in retina, FIG. 26” value (mouse retina; [6]) was “co-localizes with COX4 staining in the RGC, IPL, INL, and the photoreceptor IS” and the “distribution of staining within retinal layers, FIG. 26” value (mouse retina; [6]) was “concentrated in the inner and outer plexiform layers (IPL and OPL)”. For the same molecule, the “staining in retinal pigment epithelium (RPE) cells, FIG. 27” value (mouse retina; [6]) was “can clearly be seen in the RPE cells”, the “uptake into retina (Streptavidin Alexa Fluor 594 staining), FIG. 26” value (mouse retina; [6]) was “clearly taken up in the different layers of the retina” and the “closure of the scratch area compared to control, FIG. 16 and FIG. 17” value (HK-2 cells) was “significantly accelerated the closure of the scratch area”. The “effectiveness in reducing scratch area compared to free biotin, FIG. 16 and FIG. 17” value (HK-2 cells) was “three times more effective”, the “wound healing (scratch closure), FIG. 18” value (ARPE-19 cells [1]) was “accelerated wound healing” and the “co-localization of biotin staining with COX4 staining (inner mitochondrial membrane), FIG. 6” value [2] was “co-localization”. The “intracellular streptavidin staining (cellular uptake of biotin), microscopic images FIG. 4” value [3] was “intense red staining with a perinuclear distribution”, the “mitochondrial potential (TMRM) and filamentous mitochondrial network, FIG. 14” value [4] was “restore mitochondrial potential in all cells” and the “cell viability after serum deprivation compared to control, FIG. 9” value (ARPE-19 cells [5]; 30 days of serum deprivation) was “doubled”. The “cell number after prolonged serum deprivation, microscopic images FIG. 8” value (ARPE-19 cells [5]; 30 days serum-free) was “increased cell number”.
